Measured values reported in patent US20260184693A1, “INHIBITORS OF SOLUTE CARRIER FAMILY 6A MEMBER 19 (SLC6A19) AND METHODS OF USE THEREOF” (Maze Therapeutics, Inc., priority 2022, published 2026).
pIC50: −log10 of the molar value.

What was measured:
human SLC6A19 [1] = target: T1, human SLC6A19 (Homo sapiens, UniProt Q695T7); experiment: Example B-1: L-[3H]leucine uptake, liquid scintillation, in CHO cells with doxycycline-inducible expression of human SLC6A19 and TMEM27; format: cell-based; conditions: read-out: SLC6A19_Radioligand Uptake Assay IC50
T1 construct: expressed in transfected cells
T1 sequence (Q695T7 1-634): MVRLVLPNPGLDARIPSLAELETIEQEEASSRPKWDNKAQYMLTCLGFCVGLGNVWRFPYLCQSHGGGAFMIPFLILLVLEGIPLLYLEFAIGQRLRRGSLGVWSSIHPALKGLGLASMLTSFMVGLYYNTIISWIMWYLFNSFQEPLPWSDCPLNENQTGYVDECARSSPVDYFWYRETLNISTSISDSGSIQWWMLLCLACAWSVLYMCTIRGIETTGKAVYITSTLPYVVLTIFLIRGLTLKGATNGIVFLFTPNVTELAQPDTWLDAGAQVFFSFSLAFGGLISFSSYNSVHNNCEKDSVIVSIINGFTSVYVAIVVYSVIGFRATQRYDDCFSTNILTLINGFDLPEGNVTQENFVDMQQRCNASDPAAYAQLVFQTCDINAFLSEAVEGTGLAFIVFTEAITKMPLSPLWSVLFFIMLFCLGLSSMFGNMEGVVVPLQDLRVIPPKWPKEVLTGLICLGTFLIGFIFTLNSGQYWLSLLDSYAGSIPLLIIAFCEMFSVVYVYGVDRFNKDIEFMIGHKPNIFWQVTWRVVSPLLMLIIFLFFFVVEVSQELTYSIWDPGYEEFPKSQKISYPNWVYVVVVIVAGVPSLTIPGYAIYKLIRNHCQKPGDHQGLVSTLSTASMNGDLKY
T1 sequence (Q9HBJ8 15-222 partner): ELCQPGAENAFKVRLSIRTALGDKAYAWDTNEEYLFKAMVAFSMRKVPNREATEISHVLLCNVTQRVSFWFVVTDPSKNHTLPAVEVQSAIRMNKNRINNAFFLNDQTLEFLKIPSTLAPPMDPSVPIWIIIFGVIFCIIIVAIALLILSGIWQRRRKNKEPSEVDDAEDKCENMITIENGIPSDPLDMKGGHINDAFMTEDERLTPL
Procedure: CHO cells with doxycycline-inducible expression of human SLC6A19 and TMEM27 were maintained in T150 cell culture treated flasks using cell culture media, which consisted of 1×DMEM/F12 (Gibco, 11330057), 10% Tet System-Approved FBS (Gibco, A4736401), 100 U/mL Penicillin-Streptomycin (Gibco, 15140122), 1×GlutaMAX™ Supplement (Gibco, 35050061), 1 mM Sodium Pyruvate (Gibco, 11360070), 1.1 mg/mL Sodium Bicarbonate (Gibco, 25080094), 5 μg/mL Blasticidin (InvivoGen, ant-bl-1), 150 μg/mL Hygromycin B Gold (InvivoGen, ant-hg-5), and 500 μg/mL G418 (Sigma-Aldrich, G8168-100 mL). In preparation for the assay, this media was aspirated and 5 mL of TryμLE™ Express Enzyme (Gibco, 12605010) was added to each flask to initiate cell dissociation. The flasks were then incubated (humidified, 37° C. with 5% CO2) for 2 minutes. After incubation, 10 mL of pre-warmed cell culture media was added to each flask. The cell suspension was collected and centrifuged for 5 minutes at 200xg.
The supernatant was aspirated and the pellet was resuspended in 5 mL pre-warmed cell culture media. The resuspended cells were counted using the Countess Cell Counting Chamber (Invitrogen) and the cell concentration of the suspension was readjusted to 1 million live cells/mL using pre-warmed cell culture media. 25 uL/well (25,000 cells/well) of readjusted cell suspension was dispensed into Poly-D-Lysine 384-well white/clear plates (Corning, 354660) using a MultiDrop Combi (Thermo Electron Corp). To induce expression of Human SLC6A19 and TMEM27, 25 uL/well of cell culture media containing 2 μg/mL doxycycline was added to the first 23 columns of each plate resulting in a final concentration of […] doxycycline. 25 μL/well of cell culture media was added to the last column of each plate, to act as negative control wells for Human SLC6A19 and TMEM27 expression. Assay plates were then incubated (humidified, 37° C. with 5% CO2) for 18 hours. After incubation, the media was aspirated and the wells were washed 4 times with pre-warmed HBSS (Sigma-Aldrich, H8264-1L) using an Apricot S-Pipette S2 (Apricot Designs), such that 5 uL/well HBSS was remaining at the end of each wash. […] At this step, the final in-well DMSO concentration in the assay plate is 0.5%. All compounds were plated in a duplicate 8-point dilution series that consisted of 3-fold dilutions. […] Afterwards, 15 uL/well of 3.2 mM hot:cold leucine solution (1:15000 ratio of L-[3,4,5-3H(N)] Leucine (Perkin Elmer, NET460001MC) to L-Leucine (Sigma-Aldrich, L8912-25G) diluted with HBSS (Sigma-Aldrich, H8264-1L)) was added using the Viaflo 384 (Integra), for a final concentration of 1.6 mM hot:cold leucine solution. The plates were then incubated (humidified, 37° C. with 5% CO2) for 20 minutes to conduct the uptake reaction. Immediately after the incubation, the plates were washed 4 times with HBSS (Sigma-Aldrich, H8264-1L) using the ELx405 Microplate Washer (Biotek) to terminate the uptake reaction. After the washes, 50 uL/well Ultima Gold Scintillation Cocktail (Perkin Elmer, 6013326) was added to each well using the Viaflo 384 (Integra). The plates were then incubated (humidified, 37° C. with 5% CO2) on a plate shaker at 200 rpm for 2 hours. After incubation, the plates were removed from the shaker and kept at room temperature for 15 minutes.
Liquid scintillation analysis was performed using the MicroBeta2 Microplate Counter (Perkin Elmer). Activity (%) was derived by normalizing the average of positive control compound treated wells to 0% and the average of DMSO (negative control) wells to 100%. Collaborative Drug Discovery software was used for graphing data.

human SLC6A19 [2] = target: T1, human SLC6A19; experiment: Example B2: 13C6,15N-isoleucine uptake, RapidFire mass spectrometry, in CHO cells with doxycycline-inducible expression of human SLC6A19 and TMEM27; format: cell-based; conditions: read-out: SLC6A19_RapidFire Uptake Assay IC50
Summary of the method: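 Labelled isoleucine (13C6,15N; 2 mM added) was given 20 min at 37 °C, following a 20-min compound pre-treatment (10-point 2-fold series, duplicate). Cells were doxycycline-induced CHO co-expressing human SLC6A19 and TMEM27. Intracellular label was quantified by RapidFire-MS peak areas against a 13C-leucine standard.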

Compound | pIC50 (human SLC6A19 [1]) | pIC50 (human SLC6A19 [2])
CC(=O)N1CCC[C@@H](N(C)C(=O)NCc2cc3cc(Cl)ccc3[nH]2)C1 [Compound 147, (R)-1-(1-acetylpiperidin-3-yl)-3-((5-chloro-1H-indol-2-yl)methyl)-1-methylurea] | 6.74 | 6.71
CCN(C(=O)NCc1cc2cc(Cl)ccc2[nH]1)[C@@H]1CCCN(C(C)=O)C1 [Compound 163, (R)-1-(1-acetylpiperidin-3-yl)-3-((5-chloro-1H-indol-2-yl)methyl)-1-ethylurea] | 6.84 | 7.31
CNC(=O)N1CCC[C@@H](N(C)C(=O)NCc2cc3cc(Cl)ccc3[nH]2)C1 [Compound 171, (R)-3-(3-((5-chloro-1H-indol-2-yl)methyl)-1-methylureido)-N-methylpiperidine-1-carboxamide] | 6.82 | 7.09
Cc1ocnc1C(=O)N1CCC[C@@H](N(C)C(=O)NCc2cc3cc(Cl)ccc3[nH]2)C1 [Compound 187, (R)-3-((5-chloro-1H-indol-2-yl)methyl)-1-methyl-1-(1-(5-methyloxazole-4-carbonyl)piperidin-3-yl)urea] | 5.91 | 5.56
CN(C(=O)NCc1cc2cc(Cl)ccc2[nH]1)[C@@H]1CCCN(C(=O)Cc2ccncc2)C1 [Compound 188, (R)-3-((5-chloro-1H-indol-2-yl)methyl)-1-methyl-1-(1-(2-(pyridin-4-yl)acetyl)piperidin-3-yl)urea] | 6.18 | 6.02
CN(C(=O)NCc1cc2cc(Cl)ccc2[nH]1)[C@@H]1CCCN(C(=O)c2ccc(O)cc2)C1 [Compound 189, (R)-3-((5-chloro-1H-indol-2-yl)methyl)-1-(1-(4-hydroxybenzoyl)piperidin-3-yl)-1-methylurea] | 6.58 | 6.42
CN(C(=O)NCc1cc2cc(Cl)ccc2[nH]1)[C@@H]1CCCN(C(=O)c2cccc(O)c2)C1 [Compound 190, (R)-3-((5-chloro-1H-indol-2-yl)methyl)-1-(1-(3-hydroxybenzoyl)piperidin-3-yl)-1-methylurea] | 6.32 | 6.24
CN(C(=O)NCc1cc2cc(Cl)ccc2[nH]1)[C@@H]1CCCN(C(=O)c2ccn[nH]2)C1 [Compound 191, (R)-1-(1-(1H-pyrazole-5-carbonyl)piperidin-3-yl)-3-((5-chloro-1H-indol-2-yl)methyl)-1-methylurea] | 6.82 | 6.51
CN(C(=O)NCc1cc2cc(Cl)ccc2[nH]1)[C@@H]1CCCN(C(=O)Cc2ccno2)C1 [Compound 194, (R)-3-((5-chloro-1H-indol-2-yl)methyl)-1-(1-(2-(isoxazol-5-yl)acetyl)piperidin-3-yl)-1-methylurea] | 6.71 | 6.62
CC(=O)N1CCC[C@@H](N(CC(F)(F)F)C(=O)NCc2cc3cc(Cl)ccc3[nH]2)C1 [Compound 195, (R)-1-(1-acetylpiperidin-3-yl)-3-((5-chloro-1H-indol-2-yl)methyl)-1-(2,2,2-trifluoroethyl)urea] | 6.99 | 7.21
CN(C(=O)NCc1cc2cc(Cl)ccc2[nH]1)[C@@H]1CCCN(C(=O)c2ccccc2O)C1 [Compound 196, (R)-3-((5-chloro-1H-indol-2-yl)methyl)-1-(1-(2-hydroxybenzoyl)piperidin-3-yl)-1-methylurea] | 6.19 | 6.29
CN(C(=O)NCc1cc2cc(Cl)ccc2[nH]1)[C@@H]1CCCN(C(=O)Cc2ccn(C)n2)C1 [Compound 197, (R)-3-((5-chloro-1H-indol-2-yl)methyl)-1-methyl-1-(1-(2-(1-methyl-1H-pyrazol-3-yl)acetyl)piperidin-3-yl)urea] | 6.66 | 6.40
CN(C(=O)NCc1cc2cc(Cl)ccc2[nH]1)[C@@H]1CCCN(C(=O)c2ccn(CC(F)(F)F)n2)C1 [Compound 198, (R)-3-((5-chloro-1H-indol-2-yl)methyl)-1-methyl-1-(1-(1-(2,2,2-trifluoroethyl)-1H-pyrazole-3-carbonyl)piperidin-3-yl)urea] | 6.63 | 6.79
CN(C(=O)NCc1cc2cc(Cl)ccc2[nH]1)[C@@H]1CCCN(C(=O)Cc2cn[nH]c2)C1 [Compound 199, (R)-1-(1-(2-(1H-pyrazol-4-yl)acetyl)piperidin-3-yl)-3-((5-chloro-1H-indol-2-yl)methyl)-1-methylurea] | 6.36 | 6.24
Cc1nc(C(=O)N2CCC[C@@H](N(C)C(=O)NCc3cc4cc(Cl)ccc4[nH]3)C2)co1 [Compound 200, (R)-3-((5-chloro-1H-indol-2-yl)methyl)-1-methyl-1-(1-(2-methyloxazole-4-carbonyl)piperidin-3-yl)urea] | 6.46 | 6.29
CN(C(=O)NCc1cc2cc(Cl)ccc2[nH]1)[C@@H]1CCCN(C(=O)Cc2ccon2)C1 [Compound 201, (R)-3-((5-chloro-1H-indol-2-yl)methyl)-1-(1-(2-(isoxazol-3-yl)acetyl)piperidin-3-yl)-1-methylurea] | 6.69 | 6.64
CN(C(=O)NCc1cc2cc(Cl)ccc2[nH]1)[C@@H]1CCCN(C(=O)Cc2cocn2)C1 [Compound 202, (R)-3-((5-chloro-1H-indol-2-yl)methyl)-1-methyl-1-(1-(2-(oxazol-4-yl)acetyl)piperidin-3-yl)urea] | 6.77 | 6.16
CN(C(=O)NCc1cc2cc(Cl)ccc2[nH]1)[C@@H]1CCCN(C(=O)Cc2ncco2)C1 [Compound 204, (R)-3-((5-chloro-1H-indol-2-yl)methyl)-1-methyl-1-(1-(2-(oxazol-2-yl)acetyl)piperidin-3-yl)urea] | 6.59 | 6.12
CCc1ccc2[nH]c(CNC(=O)N(C)[C@@H]3CCCN(C(C)=O)C3)cc2c1 [Compound 217, (R)-1-(1-acetylpiperidin-3-yl)-3-((5-ethyl-1H-indol-2-yl)methyl)-1-methylurea] | 6.24 | 6.13
CC(=O)N1CCC[C@@H](N(C)C(=O)NCc2cc3cc(C)ccc3[nH]2)C1 [Compound 218, (R)-1-(1-acetylpiperidin-3-yl)-1-methyl-3-((5-methyl-1H-indol-2-yl)methyl)urea] | 6.56 | 6.19
